Results from patent publication US10221162B2, “Triazole agonists of the APJ receptor” (priority 2015, dated 2019).
Where two headings read alike, the source gives them in different places.

Legend:
[1] = tested on: isolated perfused rat hearts; assay: Ex vivo isolated perfused rat heart (Langendorff) assay; conditions: percent change; for Isolated Heart Assay dP/dtmax (%): LV contractility; for Isolated Heart Assay dP/dtmin (%): LV relaxation
[2] = biological target: human APJ receptor (Homo sapiens (Human), UniProt P35414); assay: [35S]GTPγS binding assay (hAPJ SPA); assay type: biochemical
human APJ receptor, sequence (P35414 whole entry): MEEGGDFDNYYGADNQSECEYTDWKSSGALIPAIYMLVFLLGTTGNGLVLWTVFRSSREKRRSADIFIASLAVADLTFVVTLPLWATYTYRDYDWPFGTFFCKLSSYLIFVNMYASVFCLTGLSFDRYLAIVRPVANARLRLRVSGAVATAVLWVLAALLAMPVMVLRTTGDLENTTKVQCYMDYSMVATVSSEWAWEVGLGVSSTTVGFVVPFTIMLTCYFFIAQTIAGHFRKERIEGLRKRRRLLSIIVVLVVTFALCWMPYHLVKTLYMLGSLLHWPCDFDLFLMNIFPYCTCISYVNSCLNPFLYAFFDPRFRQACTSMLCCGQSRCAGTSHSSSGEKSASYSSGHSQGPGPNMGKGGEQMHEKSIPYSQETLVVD
Method: The human APJ receptor was cloned by polymerase chain reaction and the gene encoding the receptor was subcloned in pFLAG-CMV™-3 expression vector (Sigma, Saint Louis, Mo. USA) in-house at Amgen. A GTPγS binding assay was performed on membranes prepared from CHO cells stably expressing human APJ receptor. The optimum experimental conditions for the concentrations of GDP, MgCl2, and NaCl in the assay buffer were initially determined. The assay was performed in assay buffer [20 mM HEPES, pH 7.5, 5 mM MgCl2, and 0.1% (w/v) BSA with 200 mM NaCl, 3 μM GDP] and membranes expressing human APJ receptor/well along with WGA PS beads. The reaction was initiated by addition of 0.2 nM [^35S]GTPγS (Perkin Elmer Life and Analytical Sciences, Waltham USA) in the absence or presence of various ligands and incubated at RT for 90 min. […] All the results presented are means of several independent experiments and analyzed by non-linear regression methods using commercially available program Prism (GraphPad, San Diego, Calif.) to obtain EC50 detailed in Table 58.

[3] = tested on: heart failure rat model; assay: In vivo cardiac contractility in heart failure (MI) rat model; conditions: heart failure rats; for cardiac contractility as measured by dP/dt / MI Rat Model dP/dtmax (%): acute administration for 30 min; for cardiac contractility as measured by dP/dt: result in words
Method: Male Lewis rats (Charles River, USA) at 2-3 months of age were used for the study. […] APJ agonists were administered dose dependently acutely for a period of 30 min.
The interaction between […] (ACE2) and Apelin biology is complicated. To investigate the interaction between the Apelin-APJ and ACE signalling pathways, we examined the improvement in cardiac function with APJ small molecule agonists in the presence of ACE inhibitor captopril in heart failure rats in vivo.

[4] = tested on: naive Sprague Dawley rat hearts; assay: Langendorff isolated perfused rat heart (ex vivo contractility and relaxation); conditions: Langendorff apparatus, as a function of concentration
[5] = membranes from CHO cells stably expressing human APJ receptor, [35S]GTPγS, read-out: Activity hAPJ SPA EC50 IP

| Structure (SMILES) | Isolated Heart Assay dP/dtmax (%) [1] | Isolated Heart Assay dP/dtmin (%) [1] | also measured |
| --- | --- | --- | --- |
| COc1cccc(OC)c1-n1c(NS(=O)(=O)[C@H](C)[C@@H](OC)c2ccc(Cl)cn2)nnc1-c1cccnc1 (single isomer, unassigned) [Example 531.0, (1S,2R)-1-(5-chloro-2-pyridinyl)-N-(4-(2,6-dimethoxyphenyl)-5-(3-pyridinyl)-4H-1,2,4-triazol-3-yl)-1-methoxy-2-propanesulfonamide or (1R,2S)-1-(5-chloro-2-pyridinyl)-N-(4-(2,6-dimethoxyphenyl)-5-(3-pyridinyl)-4H-1,2,4-triazol-3-yl)-1-methoxy-2-propanesulfonamide] | 4.1% | 1.9% | – |
| COc1cccc(-c2nnc(NS(=O)(=O)[C@@H](C)[C@H](O)c3ccccc3OC)n2-c2c(OC)cccc2OC)n1 (single isomer, unassigned) [Example 327.0] | – | – | EC50 [2, 5]: 2 nM |
| COc1cccc(OC)c1-n1c(NS(=O)(=O)[C@@H](C)[C@H](C)c2ncc(C)cn2)nnc1-c1cccnc1 [Example 586.0, (2S,3R)—N-(4-(2,6-dimethoxyphenyl)-5-(3-pyridinyl)-4H-1,2,4-triazol-3-yl)-3-(5-methyl-2-pyrimidinyl)-2-butanesulfonamide] | – | – | cardiac contractility as measured by dP/dt [3]: increase in cardiac contractility |
| COc1cccc(OC)c1-n1c(NS(=O)(=O)[C@H](C)[C@@H](OC)c2ncc(Cl)cn2)nnc1-c1cncc(C)c1 (single isomer, unassigned) [Example 557.0] | 17.0% | 20.0% | MI Rat Model dP/dtmax (%) [3]: No effect |
| COc1cccc(OC)c1-n1c(NS(=O)(=O)[C@@H](C)[C@H](OC)c2ncc(F)cn2)nnc1-c1cccnc1 (single isomer, unassigned) [Example 244.0] | 14.0% | 15.0% | – |
| COc1cccc(-c2nnc(NS(=O)(=O)[C@@H](C)[C@H](O)c3ccccc3OC)n2-c2c(OC)cccc2OC)n1 (single isomer, unassigned) [Example 325.0] | – | – | EC50 [2, 5]: 170 nM |
| COc1cccc(-c2nnc(NS(=O)(=O)[C@@H](C)[C@H](O)c3ccccc3OC)n2-c2c(OC)cccc2OC)n1 (single isomer, unassigned) [Example 326.0] | – | – | EC50 [2, 5]: 22 nM |
| COc1cccc(OC)c1-n1c(NS(=O)(=O)[C@@H](C)[C@H](O)c2ncc(C)cn2)nnc1-c1cccc(C)n1 [Example 99.0, (1R,2S)-N-(4-(2,6-dimethoxyphenyl)-5-(6-methylpyridin-2-yl)-4H-1,2,4-triazol-3-yl)-1-hydroxy-1-(5-methylpyrimidin-2-yl)propane-2-sulfonamide] | – | – | cardiac contractility as measured by dP/dt [3]: increase in cardiac contractility; left ventricular dP/dtmax (load independent cardiac contractility) [4]: increases load independent cardiac contractility; left ventricular dP/dtmin (load independent cardiac relaxation) [4]: increases load independent cardiac relaxation |
| CCO[C@H](c1ncc(C)cn1)[C@H](C)S(=O)(=O)Nc1nnc(-c2cccnc2)n1-c1c(OC)cccc1OC [Example 109.0, (1R,2S)-N-(4-(2,6-dimethoxyphenyl)-5-(pyridin-3-yl)-4H-1,2,4-triazol-3-yl)-1-ethoxy-1-(5-methylpyrimidin-2-yl)propane-2-sulfonamide] | – | – | cardiac contractility as measured by dP/dt [3]: increase in cardiac contractility |
| COc1cccc(-c2nnc(NS(=O)(=O)[C@@H](C)[C@H](OC)c3ncc(C)cn3)n2-c2c(OC)cccc2OC)n1 [Example 27.0, (1R,2S)—N-(4-(2,6-dimethoxyphenyl)-5-(6-methoxypyridin-2-yl)-4H-1,2,4-triazol-3-yl)-1-methoxy-1-(5-methylpyrimidin-2-yl)propane-2-sulfonamide] | – | – | cardiac contractility as measured by dP/dt [3]: increase in cardiac contractility |
| COc1cccc(-c2nnc(NS(=O)(=O)[C@@H](C)[C@H](O)c3ccccc3OC)n2-c2c(OC)cccc2OC)n1 (single isomer, unassigned) [Example 324.0] | – | – | EC50 [2, 5]: 14 nM |
| COc1cccc(OC)c1-n1c(NS(=O)(=O)[C@@H](C)[C@H](OC)c2ncc(F)cn2)nnc1-c1cncc(C)c1 (single isomer, unassigned) [Example 242.0] | 5.0% | −2.7% | – |
| COc1cccc(OC)c1-n1c(NS(=O)(=O)[C@@H](C)[C@H](C)c2ncc(F)cn2)nnc1-c1cccnc1 (single isomer, unassigned) [Example 184.0, (2R,3S)-N-(4-(2,6-dimethoxyphenyl)-5-(3-pyridinyl)-4H-1,2,4-triazol-3-yl)-3-(5-fluoro-2-pyrimidinyl)-2-butanesulfonamide or (2S,3R)-N-(4-(2,6-dimethoxyphenyl)-5-(3-pyridinyl)-4H-1,2,4-triazol-3-yl)-3-(5-fluoro-2-pyrimidinyl)-2-butanesulfonamide] | 14.5% | 14.0% | – |
| COc1cccc(OC)c1-n1c(NS(=O)(=O)[C@@H](C)[C@H](O)c2ncc(C)cn2)nnc1-c1cncc(C)c1 [Example 371.0, (1R,2S)—N-(4-(2,6-dimethoxyphenyl)-5-(5-methylpyridin-3-yl)-4H-1,2,4-triazol-3-yl)-1-hydroxy-1-(5-methylpyrimidin-2-yl)propane-2-sulfonamide] | – | – | cardiac contractility as measured by dP/dt [3]: increase in cardiac contractility |
| COc1cccc(OC)c1-n1c(NS(=O)(=O)[C@H](C)[C@@H](C)c2ncc(Cl)cn2)nnc1-c1cccnc1 (racemic) [Example 694.0, (2R,3S)-3-(5-chloropyrimidin-2-yl)-N-(4-(2,6-dimethoxyphenyl)-5-(pyridin-3-yl)-4H-1,2,4-triazol-3-yl)butane-2-sulfonamide or (2S,3R)-3-(5-chloropyrimidin-2-yl)-N-(4-(2,6-dimethoxyphenyl)-5-(pyridin-3-yl)-4H-1,2,4-triazol-3-yl)butane-2-sulfonamide] | 18.0% | 32.0% | MI Rat Model dP/dtmax (%) [3]: 8% |
| COc1cnc([C@H](O)[C@@H](C)S(=O)(=O)Nc2nnc(-c3cccnc3)n2-c2c(OC)cccc2OC)cn1 (single isomer, unassigned) [Example 706.0, (1S,2R)-N-(4-(2,6-dimethoxyphenyl)-5-(3-pyridinyl)-4H-1,2,4-triazol-3-yl)-1-hydroxy-1-(5-methoxy-2-pyrazinyl)-2-propanesulfonamide or (1R,2S)-N-(4-(2,6-dimethoxyphenyl)-5-(3-pyridinyl)-4H-1,2,4-triazol-3-yl)-1-hydroxy-1-(5-methoxy-2-pyrazinyl)-2-propanesulfonamide] | 9.1% | 4.0% | – |
| COc1cccc(OC)c1-n1c(NS(=O)(=O)[C@@H](C)[C@H](O)c2ccc(C#N)cc2)nnc1-c1cncc(C)c1.COc1cccc(OC)c1-n1c(NS(=O)(=O)[C@H](C)[C@@H](O)c2ccc(C#N)cc2)nnc1-c1cncc(C)c1 (mixture of isomers) [Example 247.0, (1R,2S)-1-(4-cyanophenyl)-N-(4-(2,6-dimethoxyphenyl)-5-(5-methyl-3-pyridinyl)-4H-1,2,4-triazol-3-yl)-1-hydroxy-2-propanesulfonamide and (1S,2R)-1-(4-cyanophenyl)-N-(4-(2,6-dimethoxyphenyl)-5-(5-methyl-3-pyridinyl)-4H-1,2,4-triazol-3-yl)-1-hydroxy-2-propanesulfonamide] | – | – | EC50 [2]: 3.8 nM |
| CCOc1cccc(OC)c1-n1c(NS(=O)(=O)[C@@H](C)[C@H](OC)c2ncc(C)cn2)nnc1-c1cccc(OC)n1 (single isomer, unassigned) [Example 665.0, (1R,2S,P)—N-(4-(2-ethoxy-6-methoxyphenyl)-5-(6-methoxy-2-pyridinyl)-4H-1,2,4-triazol-3-yl)-1-methoxy-1-(5-methyl-2-pyrimidinyl)-2-propanesulfonamide or (1R,2S,M)-N-(4-(2-ethoxy-6-methoxyphenyl)-5-(6-methoxy-2-pyridinyl)-4H-1,2,4-triazol-3-yl)-1-methoxy-1-(5-methyl-2-pyrimidinyl)-2-propanesulfonamide] | – | – | EC50 [2, 5]: 3.9 nM |
| COc1ncnc(OC)c1-n1c(NS(=O)(=O)[C@@H](C)[C@H](OC)c2ccc(Cl)cn2)nnc1-c1cccnc1 (single isomer, unassigned) [Example 711.0, (1R,2S)-1-(5-chloro-2-pyridinyl)-N-(4-(4,6-dimethoxy-5-pyrimidinyl)-5-(3-pyridinyl)-4H-1,2,4-triazol-3-yl)-1-methoxy-2-propanesulfonamide or (1S,2R)-1-(5-chloro-2-pyridinyl)-N-(4-(4,6-dimethoxy-5-pyrimidinyl)-5-(3-pyridinyl)-4H-1,2,4-triazol-3-yl)-1-methoxy-2-propanesulfonamide] | 9.4% | 1.1% | – |
| C[C@H](CS)C(=O)N1CCC[C@H]1C(=O)O [Captopril] | – | – | improvement in contractility or ejection fraction ([3]; captopril alone, acute settings): does not show a marked improvement in contractility or ejection fraction |
